The assay deals with CDK2 (UniProt P24941). The assay can be described thus: Enzyme Assay.

`COc1ccc(CNc2nc(NCC(CO)CCO)nc3c2ncn3C(C)C)cc1` (stereo not given) returned a half-inhibitory concentration (IC50) of over 5000 nM.
Then `COc1ccc(CNc2nc(N)nc3c2ncn3C(C)C)cc1`, with 1000 nM; and `COC(=O)c1ccc(CNc2nc(Cl)nc3[nH]cnc23)cc1`, with over 5000 nM; and `CC(C)n1cnc2c(NCCCc3ccccc3)nc(N(CCO)CCO)nc21`, with 5000 nM.
Then `CC(C)n1cnc2c(NCc3ccc(C4C=CC=CC4=S)cc3)nc(N(CCO)CCO)nc21` (stereo not given), with 600 nM; and `CC(C)n1cnc2c(NCc3ccc(-c4ccccc4)cc3)nc(N(C)c3ccco3)nc21`, with over 5000 nM; and `COc1ccc(CNc2nc(NCC(O)CN)nc3c2ncn3C(C)C)cc1` (stereo not given), with 1000 nM.
In the case of `CC(C)n1cnc2c(NCc3ccc(-c4ccccc4)cc3)nc(NCCO)nc21`, the IC50 came to 3000 nM.
Regarding `CNc1ccccc1C1CCCN1c1nc(NCc2ccc(OC)cc2)c2ncn(C(C)C)c2n1` (stereo not given), the IC50 is over 5000 nM.
Then `CC(C)n1cnc2c(NCC3CC3)nc(N(CCO)CCO)nc21`, with 2000 nM; and `CC(C)Cn1cnc2c(NCc3cccnc3)nc(Cl)nc21`, with over 5000 nM.
Turning to `COc1ccc(CNc2nc(NCC(O)c3c[nH]c4ccccc34)nc3c2ncn3C(C)C)cc1` (stereo not given), the 50% inhibitory concentration (IC50) was determined as 2000 nM.
Next, `Clc1nc(NCc2ccncc2)c2ncn(C3CCCC3)c2n1`: over 5000 nM; `COc1ccc(CNc2nc(NCc3cccnc3)nc3c2ncn3C(C)C)cc1`: 1000 nM; `COc1ccc(CNc2nc(NCCCC#N)nc3c2ncn3C(C)C)cc1`: 1000 nM.

Broadly, the IC50 is the concentration at which inhibition is half-maximal. Low values mean greater potency, high ones weaker potency.

These data come from the Kinase Knowledgebase extract (Sharma et al. 2016).
